Converted amounts (≈) assume the structure as drawn.
How the values were obtained:
Assay type in all cases: functional, cell-based
NCI-H358 = experiment: Cytotoxicity against human NCI-H358 cells assessed as decrease in cell viability after 96 hrs; details: NCI-H358, 96 h
HepG2 = experiment: Cytotoxicity against human HepG2 cells assessed as decrease in cell viability after 96 hrs; details: HepG2, 96 h
MCF7 = experiment: Cytotoxicity against human MCF7 cells assessed as decrease in cell viability after 96 hrs; details: MCF7, 96 h
MIA PaCa-2 = experiment: Cytotoxicity against human MIAPaCa2 cells assessed as decrease in cell viability after 96 hrs; details: MIA PaCa-2, 96 h
SN12C = experiment: Cytotoxicity against human SN12C cells assessed as decrease in cell viability after 96 hrs
HeLa = experiment: Cytotoxicity against human HeLa cells assessed as decrease in cell viability after 96 hrs

Structure (SMILES)	IC50 (NCI-H358)	IC50 (HepG2)	IC50 (MCF7)	IC50 (MIA PaCa-2)	IC50 (SN12C)	IC50 (HeLa)
C1=Cc2cc3cc(/C=C(\c4ccccc4)c4cccc[n+]4C4CCC([n+]5ccccc5Cc5ccccc5)CC4)c(cc4nc(cc5ccc(cc1n2)[nH]5)C=C4)[nH]3.[Br-].[Br-] (configuration not stated)	38.1 µg/mL	48 µg/mL	45.9 µg/mL	45.9 µg/mL	38.9 µg/mL	40.3 µg/mL
O=S(=O)([O-])c1ccccc1/C=C(\c1ccccc1)c1cccc[n+]1C1CCC([n+]2ccccc2/C(=C/c2ccccc2S(=O)(=O)[O-])c2ccccc2)CC1.[Br-].[Br-].[Na+].[Na+] (configuration not stated)	26.3 µg/mL	25.4 µg/mL	22.5 µg/mL	33.5 µg/mL	26.3 µg/mL	32.3 µg/mL
C(=C(/c1ccccc1)c1cccc[n+]1C1CCC([n+]2ccccc2Cc2ccccc2)CC1)/c1cc2c3c(c1)CCCN3CCC2.[Br-].[Br-] (configuration not stated)	36.5 µg/mL	62.5 µg/mL	96.9 µg/mL	101 µg/mL	86.5 µg/mL	101 µg/mL
O=S(=O)([O-])c1ccccc1/C=C(\c1ccccc1)c1cccc[n+]1C1CCC([n+]2ccccc2Cc2ccccc2)CC1.[Br-].[Br-].[Na+] (configuration not stated)	30 µg/mL	32.2 µg/mL	29 µg/mL	50 µg/mL	25 µg/mL	39.6 µg/mL
O=CC1=Cc2cc3cc(/C=C(\c4ccccc4)c4cccc[n+]4C4CCC([n+]5ccccc5/C(=C/c5cc6cc7nc(cc8ccc(cc9nc(cc5[nH]6)C=C9)[nH]8)C(C=O)=C7)c5ccccc5)CC4)c(cc4nc(cc5ccc(cc1n2)[nH]5)C=C4)[nH]3.[Br-].[Br-] (configuration not stated)	15.2 µg/mL	21 µg/mL	16 µg/mL	20 µg/mL	20 µg/mL	21 µg/mL
C(=C(/c1ccccc1)c1cccc[n+]1C1CCC([n+]2ccccc2/C(=C/c2cc3c4c(c2)CCCN4CCC3)c2ccccc2)CC1)/c1cc2c3c(c1)CCCN3CCC2.[Br-].[Br-] (configuration not stated)	75.6 µg/mL	53.1 µg/mL	35.6 µg/mL	55.6 µg/mL	52.6 µg/mL	49.8 µg/mL
C1=Cc2cc3cc(/C=C(\c4ccccc4)c4cccc[n+]4C4CCC([n+]5ccccc5/C(=C/c5cc6cc7nc(cc8ccc(cc9nc(cc5[nH]6)C=C9)[nH]8)C=C7)c5ccccc5)CC4)c(cc4nc(cc5ccc(cc1n2)[nH]5)C=C4)[nH]3.[Br-].[Br-] (configuration not stated)	49.6 µg/mL	33 µg/mL	45.6 µg/mL	45.6 µg/mL	31.1 µg/mL	35.3 µg/mL
O=CC1=Cc2cc3cc(/C=C(\c4ccccc4)c4cccc[n+]4C4CCC([n+]5ccccc5Cc5ccccc5)CC4)c(cc4nc(cc5ccc(cc1n2)[nH]5)C=C4)[nH]3.[Br-].[Br-] (configuration not stated)	23.3 µg/mL	25.2 µg/mL	19.1 µg/mL	29.3 µg/mL	20.3 µg/mL	23.7 µg/mL
O=c1[nH]cc(F)c(=O)[nH]1 [FLUOROURACIL]	6.9 µg/mL (≈ 53 µM)	–	–	3.5 µg/mL (≈ 26.9 µM)	6.5 µg/mL (≈ 50 µM)	3.2 µg/mL (≈ 24.6 µM)
